Measurements reported in US8518492B2, “Composition, method for manufacturing thin film, and method for manufacturing light-emitting element” (Semiconductor Energy Laboratory Co., Ltd., priority 2008, dated 2013).
Where two headings read alike, the source gives them in different places.

Tests used:
[1] = Solubility test of anthracene derivatives in solvents; format: physicochemical; details: for solubility at 10 min: organic solvent or mixture, thermodynamic from solid, ultrasonic waves 10 minutes; for solubility in a solvent (summary in words): solubility test at 10 g/L, six solvents
Experimental: As comparative examples, compositions were produced by dissolving samples 1-1 to 1-4 in solvents. As manufacturing examples 1, compositions were produced by dissolving samples 1-5 to 1-14 in solvents. The solubility test was performed on the solvents of the anthracene derivatives of the samples […]. The following six solvents were used: diethyl ether, toluene, ethyl acetate, anisole, acetone, and 1,4-dioxane.
0.01 g of each of the anthracene derivatives of the samples 1-1 to 1-14 was measured and put in a sample bottle, 1 mL of a solvent was added in the sample bottle (the solution concentration was 10 g/L), and ultrasonic waves were applied thereto for 10 minutes.

[2] = Film quality test of spin-coated thin films; format: physicochemical; set-up: key to Film Quality Test, Solvent Toluene / Film Quality Test, Solvent Ethyl acetate / Film Quality Test, Solvent Anisole / Film Quality Test, Solvent dioxane: ◯: a circle is marked in the case of a transparent film where crystallization or white turbidity is not seen; X: a cross is marked in the case of a film where crystallization or white turbidity is seen; details: for Film Quality Test, Solvent Anisole: 10 g/L in anisole; for Film Quality Test, Solvent Anisole / Film Quality Test, Solvent dioxane / Film Quality Test, Solvent Ethyl acetate / Film Quality Test, Solvent Toluene: spin coated on glass substrate at 1000 rpm (60 seconds); for Film Quality Test, Solvent dioxane: 10 g/L in dioxane; for Film Quality Test, Solvent Ethyl acetate: 10 g/L in ethyl acetate; for Film Quality Test, Solvent Toluene: 10 g/L in toluene
Experimental: A composition of each of the samples was adjusted at a concentration of 10 g/L which is the same as that of the solubility test and was deposited over a glass substrate with a size of 5 inches at 1000 rpm (60 seconds) with a spin coater.

[3] = 0.01 g in 1 mL 1,4-dioxane (10 g/L), read-out: Solubility Test, Solvent dioxane
[4] = 0.01 g in 1 mL acetone (10 g/L), read-out: Solubility Test, Solvent acetone
[5] = 0.01 g in 1 mL anisole (10 g/L), read-out: Solubility Test, Solvent Anisole
[6] = 0.01 g in 1 mL diethyl ether (10 g/L), read-out: Solubility Test, Solvent Diethyl ether
[7] = 0.01 g in 1 mL ethyl acetate (10 g/L), read-out: Solubility Test, Solvent Ethyl acetate
[8] = 0.01 g in 1 mL toluene (10 g/L), read-out: Solubility Test, Solvent Toluene

SMILES | solubility at 10 min [1, 3] | solubility at 10 min [1, 4] | solubility at 10 min [1, 5] | solubility at 10 min [1, 6] | solubility at 10 min [1, 7] | solubility at 10 min [1, 8] | Film Quality Test, Solvent Anisole [2] | Film Quality Test, Solvent dioxane [2] | Film Quality Test, Solvent Ethyl acetate [2] | Film Quality Test, Solvent Toluene [2] | solubility in a solvent (summary in words) [1] | film quality (summary in words) ([2]; film quality test, spin coated from 10 g/L composition)
c1ccc(-c2c3ccccc3c(-c3ccccc3)c3ccccc23)cc1 [Sample 1-1, 9,10-diphenylanthracene, reference compound] | < 10000 µg/mL | < 10000 µg/mL | > 10000 µg/mL | < 10000 µg/mL | < 10000 µg/mL | > 10000 µg/mL | X | X | X | X | high solubility | crystallized film with a bad quality
c1ccc(-c2ccc3c(c2)c2cc(-c4ccccc4)ccc2n3-c2ccc(-c3c4ccccc4c(-c4ccccc4)c4ccccc34)cc2)cc1 [Sample 1-10, 3,6-diphenyl-9-[4-(10-phenyl-9-antryl)phenyl]-9H-carbazole] | – | – | – | – | – | – | ◯ | X | X | ◯ | – | –
c1ccc2cc(-c3c4ccccc4c(-c4ccc(-n5c6ccccc6c6ccccc65)cc4)c4ccccc34)ccc2c1 [Sample 1-9, 9-[4-(carbazol-9-yl)phenyl]-10-(2-naphthyl)anthracene] | > 10000 µg/mL | < 10000 µg/mL | > 10000 µg/mL | < 10000 µg/mL | < 10000 µg/mL | > 10000 µg/mL | ◯ | X | X | ◯ | – | –
c1ccc(-c2c3ccccc3c(-c3ccc(-n4c5ccccc5c5cc(-c6ccc7c(c6)c6ccccc6n7-c6ccccc6)ccc54)cc3)c3ccccc23)cc1 [Sample 1-3, 9-phenyl-9′-[4-(10-phenyl-9-anthryl)phenyl]-3,3′-bi(9H-carbazole), reference compound] | < 10000 µg/mL | < 10000 µg/mL | < 10000 µg/mL | < 10000 µg/mL | < 10000 µg/mL | < 10000 µg/mL | – | – | – | – | low solubility | –
CC(C)(C)c1ccc2c(-c3ccc(-c4ccc5c(c4)c4ccccc4n5-c4ccccc4)cc3)c3ccccc3c(-c3ccc(-c4ccc5c(c4)c4ccccc4n5-c4ccccc4)cc3)c2c1 [Sample 1-4, 3,3′-(2-tert-buthylanthracene-9,10′-diyldi-4,1-phenylene)bis(9-phenyl-9H-carbazole), reference compound] | – | – | – | – | – | – | – | – | – | – | low solubility | –
c1ccc2c(-c3ccc(-n4c5ccccc5c5ccccc54)cc3)c3ccccc3c(-c3ccc(-n4c5ccccc5c5ccccc54)cc3)c2c1 [Sample 1-2, 9,10-bis(4-(N-carbazolyl)phenyl)anthracene, reference compound] | < 10000 µg/mL | < 10000 µg/mL | < 10000 µg/mL | < 10000 µg/mL | < 10000 µg/mL | < 10000 µg/mL | – | – | – | – | low solubility | –
c1ccc(-c2c3ccccc3c(-c3cccc(-n4c5ccccc5c5ccccc54)c3)c3ccccc23)cc1 [Sample 1-7, 9-[3-(10-phenyl-9-anthryl)phenyl]-9H-carbazole] | > 10000 µg/mL | < 10000 µg/mL | > 10000 µg/mL | < 10000 µg/mL | < 10000 µg/mL | > 10000 µg/mL | ◯ | ◯ | X | ◯ | – | –
CC(C)(C)c1ccc(-c2c3ccccc3c(-c3ccc(-n4c5ccccc5c5ccccc54)cc3)c3ccccc23)cc1 [Sample 1-8, 9-(4-tert-butylphenyl)-10-[4-(carbazol-9-yl)]phenylanthracene] | – | – | – | – | – | – | ◯ | X | X | ◯ | – | –
c1ccc(-c2ccccc2-c2c3ccccc3c(-c3ccccc3-c3ccccc3)c3cc(-n4c5ccccc5c5ccccc54)ccc23)cc1 [Sample 1-14, 9-[9,10-bis(2-biphenyl)-2-anthryl]-9H-carbazole] | – | – | – | – | – | – | ◯ | X | ◯ | ◯ | – | –

The next lines start with results.

solubility at 10 min [1, 3] | solubility at 10 min [1, 4] | solubility at 10 min [1, 5] | solubility at 10 min [1, 6] | solubility at 10 min [1, 7] | solubility at 10 min [1, 8] | Film Quality Test, Solvent Anisole [2] | Film Quality Test, Solvent dioxane [2] | Film Quality Test, Solvent Ethyl acetate [2] | Film Quality Test, Solvent Toluene [2] | SMILES | solubility in a solvent (summary in words) [1] | film quality (summary in words) ([2]; film quality test, spin coated from 10 g/L composition)
> 10000 µg/mL | < 10000 µg/mL | > 10000 µg/mL | < 10000 µg/mL | < 10000 µg/mL | > 10000 µg/mL | ◯ | X | X | ◯ | c1ccc(-c2c3ccccc3c(-c3ccc(-c4ccc5c(c4)c4ccccc4n5-c4ccccc4)cc3)c3ccccc23)cc1 [Sample 1-6, 9-phenyl-3-[4-(10-phenyl-9-anthryl)phenyl]-9H-carbazol] | – | –
> 10000 µg/mL | < 10000 µg/mL | > 10000 µg/mL | > 10000 µg/mL | > 10000 µg/mL | > 10000 µg/mL | ◯ | X | ◯ | ◯ | c1ccc(-c2c3ccccc3c(-c3ccccc3)c3cc(-n4c5ccccc5c5ccccc54)ccc23)cc1 [Sample 1-12, 9-(9,10-diphenyl-2-anthryl)-9H-carbazole] | – | –
– | – | – | – | – | – | ◯ | X | X | ◯ | c1ccc(-c2c3ccccc3c(-c3ccc(-n4c5ccccc5c5ccccc54)cc3)c3ccccc23)cc1 [Sample 1-5, 9-[4-(N-carbazolyl)]phenyl-10-phenylanthracene] | – | –
> 10000 µg/mL | > 10000 µg/mL | > 10000 µg/mL | – | > 10000 µg/mL | > 10000 µg/mL | ◯ | X | ◯ | ◯ | c1ccc(-c2c3ccccc3c(-c3ccccc3)c3cc(-c4ccc5c(c4)c4ccccc4n5-c4ccccc4)ccc23)cc1 [Sample 1-13, 3-(9,10-diphenyl-2-anthryl)-9-phenyl-9H-carbazole] | – | –
> 10000 µg/mL | < 10000 µg/mL | > 10000 µg/mL | – | < 10000 µg/mL | > 10000 µg/mL | ◯ | X | X | ◯ | c1ccc(-c2c3ccccc3c(-c3ccccc3)c3cc(-c4ccc(-n5c6ccccc6c6ccccc65)cc4)ccc23)cc1 [Sample 1-11, 9-[4-(9,10-diphenyl-2-anthryl)phenyl]-9H-carbazole] | – | –
